According to the NIST ThermoML archive (doi:10.1021/je900113f):
± gives the expanded uncertainty stated by the source.

Settings: 101.33 kPa, Liquid, Vibrating wire viscometry

CC(C)CCCCCCCOC(=O)c1ccccc1C(=O)OCCCCCCCC(C)C
Settings | viscosity [mPa·s]
283.03 K | 264.88 ± 8.6
288.23 K | 176.35 ± 4.9
288.36 K | 173.92 ± 4.9
293.23 K | 122.34 ± 2.6
293.93 K | 116.51 ± 2.4
298.13 K | 87.76 ± 1.6
298.58 K | 85.3 ± 1.5
303.18 K | 64.51 ± 1.1
303.5 K | 63.25 ± 1
